According to patent EP0049683A2, “Imidazo-rifamycines, process for their preparation, pharmaceutical preparations containing them and their use” (CIBA-GEIGY AG, priority 1980, dated 1982):
Converted amounts (≈) assume the structure as drawn.

Assays:
Test in all cases: Agar dilution MIC in DST agar (Ericsson and Sherris)
Assay type in all cases: cell-based
Escherichia coli 205 = settings: for MIC: Escherichia coli, 205, in vitro, read-out: MIC Esch. 205; for MIC Esch. 205: in vitro
Text: (§1) Die antibiotische Aktivität der Testverbindungen in vitro wurde durch die Agarverdünnungsmethode nach Ericsson, H.M., und Sherris, S.C., 1971, Acta Path. Microb. Scand. Section B, Suppl. No. 217, Bd. 1-90, in DST Agara ermittelt. Die gefundenen, das Wachstum der Testorganismen noch hemmenden Minimalkonzentrationen (MIC = minimum inhibiting concentrations) werden in Mikrogramm pro Milliliter (µg/ml) für die geprüften Verbindungen in der Tabelle 1 angegeben.

Proteus morganii 2359 = settings: for MIC: Morganella morganii, 2359, in vitro, read-out: MIC Prot. 2359; for MIC Prot. 2359: in vitro
Text: as §1

Proteus morganii 1518 = settings: for MIC: Morganella morganii, 1518, in vitro, read-out: MIC Prot. 1518; for MIC Prot. 1518: in vitro
Text: as §1

[1] = test system: Staphylococcus aureus 10B; settings: in vitro; for MIC: Staphylococcus aureus, 10B, read-out: MIC Staph. 10B
Text: as §1

Escherichia coli 2018 = settings: for MIC: Escherichia coli, 2018, in vitro, read-out: MIC Esch. 2018; for MIC Esch. 2018: in vitro
Text: as §1

[2] = test system: Pseudomonas aeruginosa K 799/61; settings: for MIC: Pseudomonas aeruginosa, K799/61, read-out: MIC Pseu. 799; for MIC Pseu. 799: in vitro, agar dilution, DST agar
Text: as §1

[3] = test system: Staphylococcus aureus 2999; settings: for MIC: Staphylococcus aureus, 2999, in vitro, read-out: MIC Staph. 2999; for MIC Staph. 2999: in vitro
Text: as §1

[4] = test system: Salmonella Typhimurium 277; settings: in vitro; for MIC: Salmonella enterica, TYPHIMURIUM, read-out: MIC Salm. 277
Text: as §1

CO[C@H]1/C=C/O[C@@]2(C)Oc3c(C)c(O)c4c(O)c(c5[nH]c(N6CCC(N7CCCCC7)CC6)nc5c4c3C2=O)NC(=O)/C(C)=C\C=C\[C@H](C)[C@H](O)[C@@H](C)[C@@H](O)[C@@H](C)[C@H](OC(C)=O)[C@@H]1C [Verbindung 24, 4-(4-Piperidino-1-piperidyl-)-imidazolo[4,5-c]rifamycin SV]
MIC (Escherichia coli 205): 8 µg/mL (≈ 9.01 µM)
MIC (Proteus morganii 2359): 4 µg/mL (≈ 4.5 µM)
MIC (Proteus morganii 1518): 8 µg/mL (≈ 9.01 µM)
MIC [1]: 0.05 µg/mL (≈ 0.0563 µM)
MIC (Escherichia coli 2018): 4 µg/mL (≈ 4.5 µM)
MIC [2]: 16 µg/mL (≈ 18 µM)
MIC [3]: 0.01 µg/mL (≈ 0.0113 µM)
MIC [4]: 16 µg/mL (≈ 18 µM)

CO[C@H]1/C=C/O[C@@]2(C)Oc3c(C)c(O)c4c(O)c(c5nc(N6CCCCCC6)[nH]c5c4c3C2=O)NC(=O)/C(C)=C\C=C\[C@H](C)[C@H](O)[C@@H](C)[C@@H](O)[C@@H](C)[C@H](OC(C)=O)[C@@H]1C [Verbindung 27, 4-(1-Perhydroazepinyl)-imidazolo[4,5-c]rifamycin SV]
MIC Esch. 205 (Escherichia coli 205): 8 µg/mL (≈ 9.77 µM)
MIC Prot. 2359 (Proteus morganii 2359): 8 µg/mL (≈ 9.77 µM)
MIC Prot. 1518 (Proteus morganii 1518): 2 µg/mL (≈ 2.44 µM)
MIC Staph. 10B [1]: 0.001 µg/mL (≈ 0.00122 µM)
MIC Esch. 2018 (Escherichia coli 2018): 8 µg/mL (≈ 9.77 µM)
MIC Pseu. 799 [2]: 8 µg/mL (≈ 9.77 µM)
MIC Staph. 2999 [3]: 0.001 µg/mL (≈ 0.00122 µM)
MIC Salm. 277 [4]: 32 µg/mL (≈ 39.1 µM)

CCN1CCN(c2nc3c4c(O)c5c(O)c(C)c6c(c5c3[nH]2)C(=O)[C@@](C)(O/C=C/[C@H](OC)[C@@H](C)[C@@H](OC(C)=O)[C@H](C)[C@H](O)[C@H](C)[C@@H](O)[C@@H](C)/C=C/C=C(/C)C(=O)N4)O6)CC1 [Verbindung 31, 4-(4-Ethylpiperazinyl)-imidazolo[4,5-c]rifamycin SV]
MIC Esch. 205 (Escherichia coli 205): 8 µg/mL (≈ 9.59 µM)
MIC Prot. 2359 (Proteus morganii 2359): 8 µg/mL (≈ 9.59 µM)
MIC Prot. 1518 (Proteus morganii 1518): 8 µg/mL (≈ 9.59 µM)
MIC Staph. 10B [1]: 0.002 µg/mL (≈ 0.0024 µM)
MIC Esch. 2018 (Escherichia coli 2018): 8 µg/mL (≈ 9.59 µM)
MIC Pseu. 799 [2]: 8 µg/mL (≈ 9.59 µM)
MIC Staph. 2999 [3]: 0.001 µg/mL (≈ 0.0012 µM)
MIC Salm. 277 [4]: 32 µg/mL (≈ 38.4 µM)

CCC(C)CN1CCN(c2nc3c([nH]2)c2c(O)c4c(O)c(C)c5c(c43)C(=O)[C@@](C)(O/C=C/[C@H](OC)[C@@H](C)[C@@H](OC(C)=O)[C@H](C)[C@H](O)[C@H](C)[C@@H](O)[C@@H](C)/C=C/C=C(/C)C(=O)N2)O5)CC1 (stereo partly shown) [Verbindung 38, 4-[4-(2-Methyl-butyl)piperazinyl]-imidazolo[4,5-c]rifamycin SV]
MIC (Escherichia coli 205): 4 µg/mL (≈ 4.57 µM)
MIC (Proteus morganii 2359): 2 µg/mL (≈ 2.28 µM)
MIC (Proteus morganii 1518): 4 µg/mL (≈ 4.57 µM)
MIC [1]: 0.005 µg/mL (≈ 0.00571 µM)
MIC (Escherichia coli 2018): 2 µg/mL (≈ 2.28 µM)
MIC [2]: 16 µg/mL (≈ 18.3 µM)
MIC [3]: 0.005 µg/mL (≈ 0.00571 µM)
MIC [4]: 16 µg/mL (≈ 18.3 µM)

CO[C@H]1/C=C/O[C@@]2(C)Oc3c(C)c(O)c4c(O)c(c5[nH]c(N6CCN(CCC(C)C)CC6)nc5c4c3C2=O)NC(=O)/C(C)=C\C=C\[C@H](C)[C@H](O)[C@@H](C)[C@@H](O)[C@@H](C)[C@H](OC(C)=O)[C@@H]1C [Verbindung 40, 4-[4-(3-Methylbutyl)piperazinyl]-imidazolo[4,5-c]rifamycin SV]
MIC (Escherichia coli 205): 8 µg/mL (≈ 9.13 µM)
MIC (Proteus morganii 2359): 8 µg/mL (≈ 9.13 µM)
MIC (Proteus morganii 1518): 8 µg/mL (≈ 9.13 µM)
MIC [1]: 0.005 µg/mL (≈ 0.00571 µM)
MIC (Escherichia coli 2018): 8 µg/mL (≈ 9.13 µM)
MIC [2]: 16 µg/mL (≈ 18.3 µM)
MIC [3]: 0.005 µg/mL (≈ 0.00571 µM)
MIC [4]: 32 µg/mL (≈ 36.5 µM)

C=CCCN1CCN(c2nc3c([nH]2)c2c(O)c4c(O)c(C)c5c(c43)C(=O)[C@@](C)(O/C=C/[C@H](OC)[C@@H](C)[C@@H](OC(C)=O)[C@H](C)[C@H](O)[C@H](C)[C@@H](O)[C@@H](C)/C=C/C=C(/C)C(=O)N2)O5)CC1 [Verbindung 45, 4-[4-(3-Butenyl)-piperazinyl]-imidazolo[4,5-c]rifamycin SV]
MIC (Escherichia coli 205): 8 µg/mL (≈ 9.3 µM)
MIC (Proteus morganii 2359): 8 µg/mL (≈ 9.3 µM)
MIC (Proteus morganii 1518): 8 µg/mL (≈ 9.3 µM)
MIC [1]: 0.01 µg/mL (≈ 0.0116 µM)
MIC (Escherichia coli 2018): 1 µg/mL (≈ 1.16 µM)
MIC [2]: 32 µg/mL (≈ 37.2 µM)
MIC [3]: 0.005 µg/mL (≈ 0.00581 µM)
MIC [4]: 32 µg/mL (≈ 37.2 µM)

CC=C(CC)CN1CCN(c2nc3c([nH]2)c2c(O)c4c(O)c(C)c5c(c43)C(=O)[C@@](C)(O/C=C/[C@H](OC)[C@@H](C)[C@@H](OC(C)=O)[C@H](C)[C@H](O)[C@H](C)[C@@H](O)[C@@H](C)/C=C/C=C(/C)C(=O)N2)O5)CC1 [Verbindung 47, 4-[4-(2-Ethyl-2-butenyl)-piperazinyl]-imidazolo[4,5-c]-rifamycin SV]
MIC (Escherichia coli 205): 8 µg/mL (≈ 9.01 µM)
MIC (Proteus morganii 2359): 4 µg/mL (≈ 4.5 µM)
MIC (Proteus morganii 1518): 4 µg/mL (≈ 4.5 µM)
MIC [1]: 0.005 µg/mL (≈ 0.00563 µM)
MIC (Escherichia coli 2018): 4 µg/mL (≈ 4.5 µM)
MIC [2]: 32 µg/mL (≈ 36 µM)
MIC [3]: 0.005 µg/mL (≈ 0.00563 µM)
MIC [4]: 16 µg/mL (≈ 18 µM)

CO[C@H]1/C=C/O[C@@]2(C)Oc3c(C)c(O)c4c(O)c(c5[nH]c(N6CCN(CC(C)=C(C)C)CC6)nc5c4c3C2=O)NC(=O)/C(C)=C\C=C\[C@H](C)[C@H](O)[C@@H](C)[C@@H](O)[C@@H](C)[C@H](OC(C)=O)[C@@H]1C [Verbindung 48]
MIC (Escherichia coli 205): 32 µg/mL (≈ 36 µM)
MIC (Proteus morganii 2359): 8 µg/mL (≈ 9.01 µM)
MIC (Proteus morganii 1518): 8 µg/mL (≈ 9.01 µM)
MIC [1]: 0.001 µg/mL (≈ 0.00113 µM)
MIC (Escherichia coli 2018): 8 µg/mL (≈ 9.01 µM)
MIC [2]: 32 µg/mL (≈ 36 µM)
MIC [3]: 0.001 µg/mL (≈ 0.00113 µM)
MIC [4]: 32 µg/mL (≈ 36 µM)
